The results in this text go back to publication PMC4237514, “Novel amino-β-lactam derivatives as potent cholesterol absorption inhibitors” (European Journal of Medicinal Chemistry, 2014).

The target in the test is T1, human NPC1L1 (Homo sapiens, UniProt Q9UHC9).
T1 construct: expressed in transfected cells
T1 sequence (Q9UHC9 22-1359): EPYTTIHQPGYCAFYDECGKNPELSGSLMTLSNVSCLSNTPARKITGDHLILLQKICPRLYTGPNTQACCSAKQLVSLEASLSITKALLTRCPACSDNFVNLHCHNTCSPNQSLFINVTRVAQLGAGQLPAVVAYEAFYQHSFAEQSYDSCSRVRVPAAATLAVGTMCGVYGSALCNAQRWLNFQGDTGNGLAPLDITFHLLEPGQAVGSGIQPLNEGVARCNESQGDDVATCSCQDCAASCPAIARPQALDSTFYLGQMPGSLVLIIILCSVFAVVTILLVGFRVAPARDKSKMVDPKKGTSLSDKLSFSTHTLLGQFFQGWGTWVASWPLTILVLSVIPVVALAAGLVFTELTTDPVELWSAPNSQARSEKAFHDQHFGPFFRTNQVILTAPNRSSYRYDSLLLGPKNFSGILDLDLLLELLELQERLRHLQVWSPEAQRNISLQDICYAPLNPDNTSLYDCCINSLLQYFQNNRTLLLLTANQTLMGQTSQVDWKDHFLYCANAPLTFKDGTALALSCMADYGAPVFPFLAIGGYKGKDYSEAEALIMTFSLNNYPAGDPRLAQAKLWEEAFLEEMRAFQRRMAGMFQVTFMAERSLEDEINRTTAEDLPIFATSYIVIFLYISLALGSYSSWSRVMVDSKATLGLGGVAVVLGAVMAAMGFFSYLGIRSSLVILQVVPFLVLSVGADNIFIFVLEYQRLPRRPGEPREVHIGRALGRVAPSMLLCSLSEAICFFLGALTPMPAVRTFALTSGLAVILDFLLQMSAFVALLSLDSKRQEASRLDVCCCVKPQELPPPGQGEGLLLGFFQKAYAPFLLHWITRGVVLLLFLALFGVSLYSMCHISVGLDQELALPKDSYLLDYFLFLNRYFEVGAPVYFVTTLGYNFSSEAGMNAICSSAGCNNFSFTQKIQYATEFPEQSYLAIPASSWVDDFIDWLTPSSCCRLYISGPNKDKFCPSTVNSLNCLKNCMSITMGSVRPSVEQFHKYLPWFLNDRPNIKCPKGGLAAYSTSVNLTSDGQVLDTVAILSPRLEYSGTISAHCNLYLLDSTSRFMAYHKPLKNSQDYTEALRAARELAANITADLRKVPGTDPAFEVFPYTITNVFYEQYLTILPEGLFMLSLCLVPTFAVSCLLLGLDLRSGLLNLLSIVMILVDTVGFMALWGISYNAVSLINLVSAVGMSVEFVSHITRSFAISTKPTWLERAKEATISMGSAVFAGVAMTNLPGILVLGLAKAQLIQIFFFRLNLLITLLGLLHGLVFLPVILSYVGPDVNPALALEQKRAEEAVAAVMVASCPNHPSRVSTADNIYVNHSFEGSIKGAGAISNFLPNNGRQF
The experiment in a line: In vitro [3H]cholesterol uptake assay in hNPC1L1/MDCKII cells. The class given is cell-based. Conditions: 1 h, read-out: IC50, cholesterol uptake inhibition. Here is the method: Medium A contained DMEM plus 100 units/mL penicillin and 100 μg/mL streptomycin supplemented with 5% lipoprotein-deficient serum (density > 1.21 g/mL, prepared from FCS by ultracentrifugation). Cholesterol Replenishing Medium (Medium B) was prepared according to the modified method reported by Field et al.. In brief, 0.25 mM oleic acid, 50 μM free cholesterol, 10 μM compactin, 50 μM mevalonate, 5 mM Na-taurocholate (Sigma–Aldrich, Germany), and [^3H]cholesterol (0.18 μCi/mL medium, [1,2–3H(N)] cholesterol, 1 mCi/mL (ARC Inc., USA)) in Medium A were mixed and sonicated. Following the micellar formation, compounds 1, 5, 6, 5/6 (70:30), and 6/5 (85:15) (73 mM stock solution in DMSO) were added to Medium B and vortexed to obtain the final concentrations (10, 30, 60, 90, 120, 150, 200 μM).
MDCKII wildtype and hNPC1L1/MDCKII cells were seeded in 24-well plates at a density of 5 × 10^5 cells/mL medium (500 μL medium/well) in Medium A 24 h before the treatment. Cells were washed once with PBS and incubated in Medium B (500 μL medium/well) containing micelles and tested compounds in indicated concentrations for 1 h. Following the incubation, the medium was removed and cells were washed three times with ice-cold 0.2% free fatty acid-free BSA. Cells were lysed and radioactivity in the lysate (100 μL) was determined by liquid scintillation counting. Protein concentrations of the lysates were determined with the DC Protein Assay (Bio-Rad, USA). The results were calculated as cpm/mg protein and expressed as percentage of inhibition compared to untreated cells. Each concentration was tested in duplicate in three independent experiments.

On to `O=C1[C@H](NCC(O)c2ccc(F)cc2)[C@@H](c2ccc(O)cc2)N1c1ccc(F)cc1` (stereo partly drawn) [6/5 (85:15), (3R,4R)-3-[(2S/R)-2-(4-fluorophenyl)-2-hydroxyethylamino]-1-(4-fluorophenyl)-4-(4-hydroxyphenyl)azetidin-2-one], for which the half-maximal inhibitory concentration (IC50) was 71 µM.

Broadly, the IC50 is the concentration needed to halve the response being measured.
